{"source": "patent US20160166604A1", "about": "“Thiol-Sensitive Positive Inotropes” (priority 2005, published 2016)", "key": {"[1]": {"test_system": "isolated mouse myocytes", "assay": "SR Ca2+ stores by rapid caffeine infusion in mouse myocytes", "format": "cell-based", "conditions": "1 mM AS; caffeine alone 223±34; n=8", "protocol": "Nitroxyl (HNO) confers positive inotropy in vivo. Here, it was determined whether HNO action stems from a direct influence on sarcoplasmic reticulum (SR) Ca^2+ cycling, involving enhanced Ca^2+ release from ryanodine receptors (RyR2). Myocytes were isolated from ST mice, suspended in Tyrode's solution (1 mM Ca^2+) and field stimulated (0.5 Hz, 25° C.). Sarcomere shortening (SS) was assessed by real-time image analysis, Ca^2+ transients from Indo-1 fluorescence. RyR2 activity was determined by optical imaging of Ca^2+ release from single Ca^2+ release units. The HNO donor Angeli's Salt (AS) induced dose-dependent inotropy (SS: 73±31% at 0.5 mM; 131±31% at 1 mM; all n=15, p<0.05 vs. base; <0.1 mM: no effect). In contrast, the NO donor DEA/NO reduced SS by 55-65% at 5-50 μM (both p<0.05 vs. base), with no effect at higher doses. […] However, co-infusion with the thiol-donating compound N-acetyl-L-cysteine (NAC, 3 mM) abolished AS inotropy."}, "[2]": {"target": "T1, SERCA2a (Canis lupus familiaris, UniProt O46674)", "T1 construct": "sealed cardiac sarcoplasmic reticulum (CSR) membrane vesicles isolated from normal (N) and failing (F); from tissue; host or cells: dog heart, normal and tachy-pacing-induced failing (sealed cardiac SR vesicles)", "T1 sequence (O46674 whole entry)": "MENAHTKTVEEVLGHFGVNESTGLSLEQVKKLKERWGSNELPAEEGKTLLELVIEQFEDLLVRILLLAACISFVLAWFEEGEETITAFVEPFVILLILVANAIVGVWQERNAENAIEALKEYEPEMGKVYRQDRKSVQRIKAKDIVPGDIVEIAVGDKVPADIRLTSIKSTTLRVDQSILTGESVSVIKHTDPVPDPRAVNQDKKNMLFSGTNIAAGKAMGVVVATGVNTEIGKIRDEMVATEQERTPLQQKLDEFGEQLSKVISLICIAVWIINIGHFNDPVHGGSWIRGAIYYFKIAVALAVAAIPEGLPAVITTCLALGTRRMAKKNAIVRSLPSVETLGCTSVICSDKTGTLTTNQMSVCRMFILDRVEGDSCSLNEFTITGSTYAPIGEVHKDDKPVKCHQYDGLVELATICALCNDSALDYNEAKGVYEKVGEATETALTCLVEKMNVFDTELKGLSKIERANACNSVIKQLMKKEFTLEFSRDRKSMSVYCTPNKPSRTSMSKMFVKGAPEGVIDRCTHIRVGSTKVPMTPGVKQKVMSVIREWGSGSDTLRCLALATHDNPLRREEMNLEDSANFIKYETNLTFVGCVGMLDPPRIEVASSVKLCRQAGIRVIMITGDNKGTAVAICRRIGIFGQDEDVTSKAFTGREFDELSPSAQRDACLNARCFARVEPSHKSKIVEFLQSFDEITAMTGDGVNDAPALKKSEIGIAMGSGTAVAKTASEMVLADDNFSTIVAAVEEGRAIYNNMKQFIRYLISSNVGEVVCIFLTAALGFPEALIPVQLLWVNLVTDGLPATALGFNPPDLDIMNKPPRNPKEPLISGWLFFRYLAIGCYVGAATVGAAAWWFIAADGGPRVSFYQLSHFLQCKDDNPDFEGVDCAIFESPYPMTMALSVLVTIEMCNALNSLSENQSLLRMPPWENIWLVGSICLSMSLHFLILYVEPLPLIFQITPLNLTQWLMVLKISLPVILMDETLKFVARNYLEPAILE", "assay": "Ca-ATPase partial reactions and Vmax in cardiac SR vesicles from normal and failing dog hearts", "format": "biochemical", "conditions": "for stimulation of maximal Ca-ATPase activity compared to control / spontaneous E2P hydrolysis rate: 0.25 mM AS; for stimulation of maximal Ca-ATPase activity compared to control: 2.5 mM oxalate", "protocol": "The effect of AS on Ca-ATPase partial reactions and Vmax was measured in sealed cardiac sarcoplasmic reticulum (CSR) membrane vesicles isolated from normal (N) and failing (F) (tachy-pacing-induced) dog hearts. […] In the presence of 2.5 mM oxalate (Ca^2+-loading conditions), 0.25 mM AS stimulated maximal Ca-ATPase activity in N and F CSR (4% vs. 9% compared to control). […] This relieves back inhibition of SERCA2a by the Ca^2+ transport gradient, increasing Vmax."}, "[3]": {"test_system": "mice cardiomyocytes", "assay": "Whole Ca2+ transients in isolated mouse myocytes (fluo-4, confocal line scan)", "format": "cell-based", "protocol": "Wild type 2-4 month old mice were anesthetized with intraperitoneal pentobarbital sodium (100 mg/kg/ip). Hearts were perfused as previously described. Mongillo, M. et al., Circ. Res., 98, 226-234 (2006). To assess for sarcomere shortening, cells were imaged using field stimulation (Warner instruments) in an inverted fluorescence microscope (Diaphot 200; Nikon, Inc). Sarcomere length was measured by real-time Fourier transform (IonOptix MyoCam, CCCCD100M) and cell twitch amplitude is expressed as a percentage of resting cell length. Twitch kinetics was quantified by measuring the time to peak shortening and the time from peak shortening to 50% relaxation. For whole calcium transient measurements, myocytes were loaded with the Ca^2+ indicator fluo-4/AM (Molecular Probes, 20 μM for 30 min) and Ca^2+ transients were measured under field-stimulation at 0.5 Hz in perfusion solution by confocal laser scanning microscope (LSM510, Carl Zeiss). Digital image analysis used customer-designed programs coded in Interactive Data Language (IDL).\nTo further explore potential HNO targets, calcium cycling in adult mouse and rat cardiac myocytes was examined. Cells were first exposed to AS for 5-10 min, then washed and loaded with Indo-1 or Fluo-4 for 20 min. Pretreatment with AS was carried out because the drug reacted with the Ca^2+ indicators (both Fluo-4 and Indo-1) and altered their fluorescent properties. In mice, the calcium transient amplitude assessed by confocal line scan imaging increased by ˜40% over baseline with 0.5 mM AS, (n=27, p<0.001) (FIG. 3A-FIG. 3C), time to peak transient was prolonged (FIG. 3D) while the decay time shortened (FIG. 3E). Basal fluorescence (F0) was unchanged by AS pretreatment (FIG. 3F). Similar results were obtained in rat myocytes (using Indo-1) for Ca^2+ transient amplitude (FIG. 3G and FIG. 3H) and decay time (FIG. 3I). The increase in amplitude was not accompanied by an increase in diastolic Ca^2+ level (ratio 405/485=0.239±0.006 (Con) vs. 0.243±0.008 (AS); n.s.; see also FIG. 3A, FIG. 3F and FIG. 3G). Rapid sustained caffeine (10 mM) application abruptly releases all SR Ca^2+ and subsequent [Ca^2+]i decline is mediated mainly via Na/Ca exchange."}}, "data": [{"compound": "[Na+].[Na+].[O-][N+]([O-])=NO", "note": "[AS, Angeli's salt]", "values": [{"measurement": "SR Ca2+ stores (% [Ca2+]i on caffeine)", "setting": "[1]", "result": "138±17", "unit": "%"}, {"measurement": "Vmax stimulation in presence of Ca2+ ionophore A23187", "setting": "[2]; AS with A23187", "result": "abolished"}, {"measurement": "stimulation of maximal Ca-ATPase activity compared to control", "setting": "[2]; F CSR", "result": 9, "unit": "%"}, {"measurement": "stimulation of maximal Ca-ATPase activity compared to control", "setting": "[2]; N CSR", "result": 4, "unit": "%"}, {"measurement": "Vmax stimulation", "setting": "[2]; N CSR, AS, without oxalate", "result": 27, "unit": "%"}, {"measurement": "spontaneous E2P hydrolysis rate", "setting": "[2]; failing (F) CSR, without AS 11", "result": 111, "unit": "s⁻¹"}, {"measurement": "spontaneous E2P hydrolysis rate", "setting": "[2]; normal (N) CSR, without AS 12", "result": 76, "unit": "s⁻¹"}, {"measurement": "Ca2+ transient decay time", "setting": "[3]; 0.5 mM AS pretreatment", "result": "shortened"}, {"measurement": "time to peak Ca2+ transient", "setting": "[3]; 0.5 mM AS pretreatment", "result": "prolonged"}, {"measurement": "increase of calcium transient amplitude over baseline", "setting": "[3]; 0.5 mM AS pretreatment, n=27", "result": "~40", "unit": "%"}, {"measurement": "basal fluorescence (F0)", "setting": "[3]; AS pretreatment", "result": "unchanged"}, {"measurement": "Ca2+ transients", "setting": "[3]; AS, isolated murine cardiomyocytes (Example 7)", "result": "without changes"}]}]}
